According to patent publication US8937076B2, “Crystalline form of entecavir, its preparation and the pharmaceutical composition and uses thereof” (Zhejiang Medicine Co., Ltd. Xinchang Pharaceutical Factory, priority 2007, dated 2015):

Experiment: Solubility at room temperature
Format: physicochemical

Solubility in N,N-dimethylformamide (N. N-dimethylformamide): sparingly soluble
Solubility in dimethyl sulfoxide (dimethyl sulfoxide): soluble
Solubility in ethanol (ethanol): slightly soluble
Solubility in water (water): insoluble
Compound: C=C1[C@H](CO)[C@@H](O)C[C@@H]1n1cnc2c(=O)[nH]c(N)nc21 [crystalline form of entecavir]
